Measurements as given in the supplement of paper PMC13380429.

Columns and labels:
Settings in all cases: 72 h
Vero E6 [1] = test: cell viability relative to DMSO; higher = less toxic
U2OS [2] = test: as above
Calu-3 [3] = test: as above
HepG2 [4] = test: as above
Caco-2 [5] = test: as above
Vero E6 [6] = test: drug sensitivity score (DSS) for viability; higher = more toxic; extreme values may be limits of the assay
U2OS [7] = test: as above
Calu-3 [8] = test: as above
HepG2 [9] = test: as above
Caco-2 [10] = test: as above
Vero E6 [11] = test: relative viability EC50 (midpoint between 100% and the lowest measured viability); higher = less toxic
U2OS [12] = test: as above
Calu-3 [13] = test: as above
HepG2 [14] = test: as above
Caco-2 [15] = test: as above

Structure (SMILES) | cell viability (Vero E6 [1]; 1 nM) [%] | cell viability (Vero E6 [1]; 10 nM) [%] | cell viability (Vero E6 [1]; 100 nM) [%] | cell viability (Vero E6 [1]; 1000 nM) [%] | cell viability (Vero E6 [1]; 10000 nM) [%] | cell viability (U2OS [2]; 1 nM) [%] | cell viability (U2OS [2]; 10 nM) [%] | cell viability (U2OS [2]; 100 nM) [%] | cell viability (U2OS [2]; 1000 nM) [%] | cell viability (U2OS [2]; 10000 nM) [%] | cell viability (Calu-3 [3]; 1 nM) [%] | cell viability (Calu-3 [3]; 10 nM) [%] | cell viability (Calu-3 [3]; 100 nM) [%] | cell viability (Calu-3 [3]; 1000 nM) [%] | cell viability (Calu-3 [3]; 10000 nM) [%] | cell viability (HepG2 [4]; 1 nM) [%] | cell viability (HepG2 [4]; 10 nM) [%] | cell viability (HepG2 [4]; 100 nM) [%] | cell viability (HepG2 [4]; 1000 nM) [%] | cell viability (HepG2 [4]; 10000 nM) [%] | cell viability (Caco-2 [5]; 1 nM) [%] | cell viability (Caco-2 [5]; 10 nM) [%] | cell viability (Caco-2 [5]; 100 nM) [%] | cell viability (Caco-2 [5]; 1000 nM) [%] | cell viability (Caco-2 [5]; 10000 nM) [%] | drug sensitivity score (Vero E6 [6]) | drug sensitivity score (U2OS [7]) | drug sensitivity score (Calu-3 [8]) | drug sensitivity score (HepG2 [9]) | drug sensitivity score (Caco-2 [10]) | relative viability EC50 (Vero E6 [11]) [µM] | relative viability EC50 (U2OS [12]) [µM] | relative viability EC50 (Calu-3 [13]) [µM] | relative viability EC50 (HepG2 [14]) [µM] | relative viability EC50 (Caco-2 [15]) [µM]
O=C1OC(c2ccc(O)cc2)(c2ccc(O)cc2)c2ccccc21 [phenolphthalein] | 95.8 | 93.2 | 87.4 | 95.3 | 107 | 99.1 | 96.1 | 99.7 | 97 | 105 | 96.1 | 94.8 | 94.2 | 102 | 102 | 131 | 76.1 | 112 | 105 | 119 | 86.3 | 77.8 | 99.7 | 93.2 | 102 | 0 | 0 | 0 | 0 | 0 | > 10 | > 10 | > 10 | > 10 | > 10
Cc1ccccc1N1CCN(S(=O)(=O)C[C@]23CC[C@H](C[C@@H]2NC(=O)[C@@H](N)CCS(C)(=O)=O)C3(C)C)CC1 | 101 | 93.8 | 98 | 87.6 | 110 | 95.3 | 96.4 | 95.8 | 101 | 103 | 98.2 | 103 | 94.3 | 105 | 99.5 | 109 | 94.7 | 107 | 111 | 108 | 97.5 | 93.3 | 90 | 108 | 96.5 | 0 | 0 | 0 | 0 | 0 | > 10 | > 10 | > 10 | > 10 | > 10
CCc1c(C(=O)NCCc2ccc(N3CCCCC3)cc2)[nH]c2ccc(Cl)cc12 | 97.6 | 96.4 | 105 | 100 | 96 | 98 | 93.9 | 98.8 | 95.2 | 98.6 | 95.8 | 97.5 | 93.4 | 100 | 101 | 97.4 | 107 | 92.3 | 105 | 99.4 | 98.7 | 94 | 95.2 | 90.6 | 91 | 0 | 0 | 0 | 0 | 0 | > 10 | > 10 | > 10 | > 10 | > 10
O=C(Nc1ccccc1F)N[C@H]1N=C(c2ccccc2)c2ccccc2NC1=O [RSV604] | 95.1 | 101 | 95.8 | 95.3 | 92 | 98.5 | 98.5 | 98.5 | 105 | 100 | 94.2 | 90.5 | 99.2 | 102 | 89.8 | 109 | 110 | 95.9 | 96.5 | 109 | 92.5 | 107 | 97.2 | 102 | 85.2 | 0 | 0 | 0 | 0 | 0.1 | > 10 | > 10 | > 10 | > 10 | > 10
O=C(O[C@@H]1Cc2c(O)cc(O)cc2O[C@@H]1c1cc(O)c(O)c(O)c1)c1cc(O)c(O)c(O)c1 [epigallocatechin-gallate-(-)] | 98.5 | 100 | 103 | 98.2 | 95.4 | 100 | 98.2 | 103 | 97 | 97.3 | 103 | 90.5 | 103 | 96.8 | 97.1 | 101 | 107 | 93.1 | 97.8 | 97.5 | 103 | 99.1 | 97.7 | 99.7 | 101 | 0 | 0 | 0 | 0 | 0 | > 10 | > 10 | > 10 | > 10 | > 10
N[C@@H](C[C@@H](F)C(=O)O)C(=O)O [BAY-85-8050] | 93.6 | 93.8 | 102 | 95.7 | 100 | 93.5 | 99.6 | 96.7 | 100 | 106 | 90.2 | 94.7 | 90.6 | 86.2 | 98.5 | 96.2 | 98.7 | 109 | 95.6 | 99.7 | 91.1 | 105 | 97.8 | 100 | 110 | 0 | 0 | 0 | 0 | 0 | > 10 | > 10 | > 10 | > 10 | > 10
N#Cc1ccc(N2CCN(C(=O)COc3ccc4[nH]cc(CCN)c4c3)CC2)cc1 [donitriptan] | 95.1 | 101 | 98 | 98.5 | 107 | 101 | 102 | 99.4 | 99.7 | 107 | 89 | 103 | 107 | 106 | 111 | 102 | 105 | 94.1 | 102 | 94.8 | 92.4 | 88.7 | 89 | 97.1 | 104 | 0 | 0 | 0 | 0 | 0 | > 10 | > 10 | > 10 | > 10 | > 10
C[C@H](Nc1cc(NS(=O)(=O)N2CCC2)nc(SCc2cccc(F)c2F)n1)[C@@H](O)CO [SRT3190] | 102 | 100 | 95.2 | 98.5 | 96.4 | 98.4 | 95.2 | 100 | 93.2 | 94.5 | 104 | 97.1 | 99.9 | 89.9 | 98.5 | 97.6 | 90.1 | 91 | 111 | 96 | 103 | 91 | 93.3 | 96 | 101 | 0 | 0 | 0 | 0 | 0 | > 10 | > 10 | > 10 | > 10 | > 10
COc1cccc(C(=O)CCN[C@@H](C)[C@H](O)c2ccccc2)c1 [oxyfedrine] | 103 | 99.8 | 99.2 | 104 | 101 | 97.8 | 103 | 98.5 | 99.9 | 95.4 | 86.3 | 98.6 | 113 | 95.6 | 107 | 101 | 105 | 98.9 | 91.3 | 79.8 | 99.3 | 101 | 108 | 102 | 95.8 | 0 | 0 | 0 | 1.3 | 0 | > 10 | > 10 | > 10 | > 10 | > 10
O=C(O)[C@H]1CN(CCCP(=O)(O)O)CCN1 [CPP] | 99.2 | 103 | 99.8 | 102 | 102 | 103 | 106 | 101 | 101 | 99.8 | 102 | 104 | 92.6 | 89.4 | 90.5 | 96.6 | 112 | 98.6 | 103 | 104 | 97 | 101 | 103 | 101 | 94.5 | 0 | 0 | 0.2 | 0 | 0 | > 10 | > 10 | > 10 | > 10 | > 10
c1cc2c3c(c1)c1c(n3CCNC2)CCCC1 [WAY-629] | 100 | 99.7 | 102 | 98.8 | 92.4 | 101 | 100 | 95.3 | 93 | 95.9 | 110 | 83.8 | 104 | 106 | 85.7 | 88.5 | 95.4 | 81.1 | 93 | 90.9 | 113 | 90.6 | 100 | 90 | 97.1 | 0 | 0 | 0.1 | 0 | 0 | > 10 | > 10 | > 10 | > 10 | > 10
CCCC(CCC)C(=O)NCc1ccc2c(cnn2-c2ccccc2OC)c1 [M-25] | 94.5 | 94.2 | 96.6 | 91.5 | 88.8 | 102 | 100 | 99.5 | 100 | 95.1 | 113 | 95.5 | 115 | 101 | 102 | 99.8 | 108 | 101 | 105 | 87 | 99.2 | 102 | 97.1 | 95.3 | 79.6 | 0 | 0 | 0 | 0 | 1.2 | > 10 | > 10 | > 10 | > 10 | > 10
Cc1oc(=O)oc1COC(=O)C1=C([C@H]2CCCO2)S[C@@H]2[C@@H]([C@@H](C)O)C(=O)N12 [faropenem-medoxomil] | 94.7 | 94.1 | 97.6 | 92.4 | 97.9 | 98.8 | 96.3 | 98.3 | 98.2 | 99.9 | 99.3 | 94.7 | 102 | 93 | 98.8 | 103 | 99.2 | 98.1 | 95.1 | 100 | 95.6 | 93.4 | 96.8 | 93.2 | 97.9 | 0 | 0 | 0 | 0 | 0 | > 10 | > 10 | > 10 | > 10 | > 10
O=C(O)C1(C(=O)O)CCC1.[NH2-].[NH2-].[Pt+2] [carboplatin] | 99.6 | 92.5 | 103 | 98.4 | 109 | 94.3 | 95.9 | 93.2 | 100 | 108 | 90.8 | 98.8 | 93.6 | 90.7 | 106 | 106 | 98.7 | 99.5 | 90.7 | 103 | 97.8 | 102 | 85.4 | 94.9 | 100 | 0 | 0 | 0 | 0 | 0 | > 10 | > 10 | > 10 | > 10 | > 10
